Experiments:
[1] = test system: cells of the dermal papilla of occipital scalp; assay: Hydrolysis of compound 2 to compound 1 in cultivated dermal papilla cells (HPLC of media extracts); format: in vitro ADME, human; settings: skin cells, in particular cells of the dermal papilla
Protocol: Monolayer cultures of juvenile prepuce keratinocytes and fibroblasts and of cells of the dermal papilla of occipital scalp were incubated with compound 2 in a concentration of 10^−5 M under standard conditions (5% CO2, 37° C.) for 24 h. The cell culture medium was then extracted with chloroform. The organic phase was evaporated and the residue was taken up in acetonitrile and investigated by HPLC analysis for its content of compounds 1 and 2.

[2] = Microscopic investigations for crystallization of active ingredient in the preparation; format: physicochemical; settings: lipid nanoparticle preparations

Compound: CCCCCCCCCCCCCC(=O)OCCCCN1C(=O)N(c2ccc(C#N)c(C(F)(F)F)c2)C(=O)C1(C)C [compound 2]
- Conversion of compound 2 into compound 1 (in words) [1]: significant conversion
- Crystallization of compound 2 in the preparation (microscopy) [2]: no indications of crystallization
